Measured values published in patent publication US20220187282A1, “CARDIOMYOCYTE PROLIFERATION” (The Council of the Queensland Institute of Medical Research, priority 2019, published 2022).

Experiments:
kinases [1] = target: kinases (Homo sapiens, UniProt P53671); type: biochemical; details: LIMK2 FRET-Lantha SP; Test Conc(μM) 1
kinases [2] = target: kinases (Homo sapiens, UniProt Q96GD4); type: biochemical; details: AURKB (Aurora B) Z-Lyte SP; Test Conc(μM):ATP Conc(μM) 1:75
kinases [3] = target: kinases (Homo sapiens, UniProt P17612); type: biochemical; details: PRKACA (PKA) FRET-Z-Lyte SP; Test Conc(μM):ATP Conc(μM) 1:5
kinases [4] = target: kinases (Homo sapiens, UniProt P08581); type: biochemical; details: MET (cMet) FRET-Z-Lyte SP; Test Conc(μM):ATP Conc(μM) 1:50
Sequence of kinases (Homo sapiens, UniProt P08581) (P08581 25-1390): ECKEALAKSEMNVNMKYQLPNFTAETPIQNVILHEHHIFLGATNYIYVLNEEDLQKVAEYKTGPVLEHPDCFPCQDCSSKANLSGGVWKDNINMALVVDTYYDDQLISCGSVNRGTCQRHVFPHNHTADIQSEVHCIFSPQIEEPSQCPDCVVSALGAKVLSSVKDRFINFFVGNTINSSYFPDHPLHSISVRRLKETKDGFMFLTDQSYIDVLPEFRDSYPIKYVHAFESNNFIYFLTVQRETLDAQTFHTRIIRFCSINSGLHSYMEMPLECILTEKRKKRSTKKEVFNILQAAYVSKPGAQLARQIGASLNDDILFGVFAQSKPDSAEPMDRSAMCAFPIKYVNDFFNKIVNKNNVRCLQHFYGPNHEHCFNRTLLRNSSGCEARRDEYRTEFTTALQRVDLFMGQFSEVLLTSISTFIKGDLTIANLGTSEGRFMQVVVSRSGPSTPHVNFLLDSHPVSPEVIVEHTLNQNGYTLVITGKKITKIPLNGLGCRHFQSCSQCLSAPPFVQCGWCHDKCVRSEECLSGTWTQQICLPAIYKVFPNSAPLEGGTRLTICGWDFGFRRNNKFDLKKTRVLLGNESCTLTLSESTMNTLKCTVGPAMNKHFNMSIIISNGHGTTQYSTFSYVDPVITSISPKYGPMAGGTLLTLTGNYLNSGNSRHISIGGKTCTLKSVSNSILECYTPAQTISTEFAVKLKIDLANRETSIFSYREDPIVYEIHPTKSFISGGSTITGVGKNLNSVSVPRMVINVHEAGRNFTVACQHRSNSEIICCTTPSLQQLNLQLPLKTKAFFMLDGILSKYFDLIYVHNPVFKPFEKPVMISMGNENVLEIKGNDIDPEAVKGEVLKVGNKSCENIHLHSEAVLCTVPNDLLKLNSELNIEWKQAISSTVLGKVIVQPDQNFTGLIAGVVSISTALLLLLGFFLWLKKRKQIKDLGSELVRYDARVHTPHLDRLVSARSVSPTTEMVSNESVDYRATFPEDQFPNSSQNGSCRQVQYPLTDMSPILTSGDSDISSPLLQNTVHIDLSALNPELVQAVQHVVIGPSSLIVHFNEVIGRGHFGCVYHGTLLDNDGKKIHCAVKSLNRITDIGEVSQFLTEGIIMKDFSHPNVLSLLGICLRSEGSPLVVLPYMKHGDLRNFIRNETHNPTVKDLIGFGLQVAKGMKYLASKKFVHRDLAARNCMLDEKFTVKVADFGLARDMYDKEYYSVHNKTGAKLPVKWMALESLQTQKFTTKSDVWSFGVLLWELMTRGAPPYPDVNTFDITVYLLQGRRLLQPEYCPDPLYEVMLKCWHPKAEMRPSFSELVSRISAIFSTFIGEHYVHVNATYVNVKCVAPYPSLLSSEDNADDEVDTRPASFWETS

kinases [5] = target: kinases (Homo sapiens, UniProt O43318); type: biochemical; details: MAP3K7/MAP3K7IP1 Lantha SP; Test Conc(μM) 1
Sequence of kinases (Homo sapiens, UniProt O43318) (O43318 whole entry): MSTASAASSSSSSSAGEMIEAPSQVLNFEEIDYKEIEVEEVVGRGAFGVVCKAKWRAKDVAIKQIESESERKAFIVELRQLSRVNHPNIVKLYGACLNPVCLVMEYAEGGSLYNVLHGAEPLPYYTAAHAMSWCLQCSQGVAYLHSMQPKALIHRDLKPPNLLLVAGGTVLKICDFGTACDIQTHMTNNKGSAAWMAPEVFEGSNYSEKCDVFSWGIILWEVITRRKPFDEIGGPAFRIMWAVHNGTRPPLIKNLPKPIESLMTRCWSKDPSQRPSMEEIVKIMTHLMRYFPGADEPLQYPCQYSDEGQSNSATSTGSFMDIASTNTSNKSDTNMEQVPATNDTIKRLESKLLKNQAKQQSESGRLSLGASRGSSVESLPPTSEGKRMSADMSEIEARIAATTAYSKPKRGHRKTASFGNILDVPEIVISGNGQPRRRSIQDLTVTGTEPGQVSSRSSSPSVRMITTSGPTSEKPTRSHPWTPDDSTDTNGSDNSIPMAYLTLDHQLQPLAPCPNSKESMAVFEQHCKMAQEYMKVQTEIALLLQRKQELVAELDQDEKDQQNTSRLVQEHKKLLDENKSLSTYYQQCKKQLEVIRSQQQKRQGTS

kinases [6] = target: kinases (Homo sapiens, UniProt Q9H4B4); type: biochemical; details: PLK3 FRET-Z-Lyte SP; Test Conc(μM):ATP Conc(μM) 1:50
Sequence of kinases (Homo sapiens, UniProt Q9H4B4) (Q9H4B4 whole entry): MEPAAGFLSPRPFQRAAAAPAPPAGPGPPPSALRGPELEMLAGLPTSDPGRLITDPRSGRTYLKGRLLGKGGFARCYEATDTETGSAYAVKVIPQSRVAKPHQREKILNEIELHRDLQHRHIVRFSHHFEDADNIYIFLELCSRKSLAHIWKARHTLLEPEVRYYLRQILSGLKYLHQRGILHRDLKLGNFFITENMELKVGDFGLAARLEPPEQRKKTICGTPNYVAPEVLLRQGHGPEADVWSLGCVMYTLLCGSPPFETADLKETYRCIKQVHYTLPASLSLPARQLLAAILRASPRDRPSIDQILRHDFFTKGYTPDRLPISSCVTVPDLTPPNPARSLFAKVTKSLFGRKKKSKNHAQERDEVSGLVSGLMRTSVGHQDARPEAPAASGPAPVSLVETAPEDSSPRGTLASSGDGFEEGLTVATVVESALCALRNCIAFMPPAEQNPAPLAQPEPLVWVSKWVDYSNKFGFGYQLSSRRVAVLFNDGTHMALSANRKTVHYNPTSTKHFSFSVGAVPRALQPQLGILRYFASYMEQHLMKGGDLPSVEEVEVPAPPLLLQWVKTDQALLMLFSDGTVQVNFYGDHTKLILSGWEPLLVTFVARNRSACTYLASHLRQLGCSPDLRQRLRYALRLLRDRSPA

kinases [7] = target: kinases (Homo sapiens, UniProt P31751); type: biochemical; details: AKT2 (PKB beta) FRET-Z-Lyte SP; Test Conc(μM):ATP Conc(μM) 1:200
Sequence of kinases (Homo sapiens, UniProt P31751) (P31751 whole entry): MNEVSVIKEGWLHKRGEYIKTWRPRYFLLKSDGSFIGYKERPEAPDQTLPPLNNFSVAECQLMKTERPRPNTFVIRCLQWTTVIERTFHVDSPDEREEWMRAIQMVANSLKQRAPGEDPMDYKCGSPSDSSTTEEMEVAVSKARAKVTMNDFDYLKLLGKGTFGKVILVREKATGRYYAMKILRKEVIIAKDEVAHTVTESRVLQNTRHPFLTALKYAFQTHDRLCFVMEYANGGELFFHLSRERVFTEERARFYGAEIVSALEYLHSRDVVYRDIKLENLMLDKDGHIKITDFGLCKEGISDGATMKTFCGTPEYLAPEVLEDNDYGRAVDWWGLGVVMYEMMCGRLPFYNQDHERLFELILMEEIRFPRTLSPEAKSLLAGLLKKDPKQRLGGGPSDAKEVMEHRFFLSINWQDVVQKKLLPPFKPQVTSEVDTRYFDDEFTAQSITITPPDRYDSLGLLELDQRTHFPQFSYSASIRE

kinases [8] = target: kinases (Homo sapiens, UniProt Q8IWQ3); type: biochemical; details: BRSK2 FRET-Lantha SP; Test Conc(μM) 1
kinases [9] = target: kinases (Homo sapiens, UniProt Q9H422); type: biochemical; details: HIPK3 (YAK1) FRET-Z-Lyte SP; Test Conc(μM):ATP Conc(μM) 1:25
kinases [10] = target: kinases (Homo sapiens, UniProt P28482); type: biochemical; details: MAPK1 (ERK2) FRET-Z-Lyte SP; Test Conc(μM):ATP Conc(μM) 1:100
Sequence of kinases (Homo sapiens, UniProt P28482) (P28482 whole entry): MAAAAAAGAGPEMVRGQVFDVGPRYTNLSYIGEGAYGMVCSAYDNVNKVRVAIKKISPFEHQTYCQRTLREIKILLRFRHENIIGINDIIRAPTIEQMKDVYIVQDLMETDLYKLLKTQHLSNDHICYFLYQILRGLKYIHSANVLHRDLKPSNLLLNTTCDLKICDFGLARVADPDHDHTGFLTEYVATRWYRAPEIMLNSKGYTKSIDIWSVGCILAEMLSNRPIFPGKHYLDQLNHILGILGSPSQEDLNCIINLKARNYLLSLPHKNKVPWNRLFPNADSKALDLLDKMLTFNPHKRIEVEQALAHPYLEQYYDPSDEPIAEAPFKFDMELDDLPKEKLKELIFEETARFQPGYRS

immature hCOs = assay: immature hCO screen, force of contraction; type: cell-based, human; details: 2 days
Description: The pole deflection was used to approximate the force of contraction as per (Mills et al., 2017a). A Leica DMi8 inverted high content Imager was used to capture a 10 s time-lapse of each hCO contracting in real time at 37° C. Custom batch processing files were written in Matlab R2013a (Mathworks) to convert the stacked TIFF files to AVI, track the pole movement (using vision.PointTracker), determine the contractile parameters, produce a force-time figure, and export the batch data to an Excel (Microsoft) spreadsheet.
The compound library included 5,000 biologically annotated pre-clinical, clinical, and tool compounds. They were selected based on a combination of criteria including balancing the number of external/internal compounds, diversity of annotated targets to cover greater than 1500 biological targets, and known targets associated with cell proliferation. […] Both negative vehicle (DMSO) and positive (CHIR99021) controls were included on each plate in each experiment (FIG. 2B,C).

[11] = system: adult cardiomyocytes (MLC2v); assay: adult mouse intracardiac injection, BrdU+ cardiomyocytes after fix-dissociation; type: in vivo; details: adult mice; for cardiomyocyte DNA synthesis (BrdU+): single dose 10 mg/kg injected into the heart, 3 days
Description: 8-week-old male mice were anesthetized with 4% isoflurane (Bayer) with 0.25 L/min oxygen and then maintained with 2% isoflurane. Once, anaesthetised, each mouse received a s.c. buprenorphine injection (0.05 mg/kg). The animals were intubated and ventilated (Minivent, Harvard Apparatus) (tidal volume=250 respiration rate=133 strokes/min). To access the heart, a lateral thoracotomy was performed at the 4th intercostal space. A Hamilton syringe with a 30-gauge needle was used to inject ˜20 ? l of small molecule solution (final concentration 10 mg/kg) into the myocardium. All compounds were emulsified in Kolliphor/PBS solution (20% Kolliphor® HS 15 (w/v) in PBS, pH 7.4) at a concentration of 20 mg/mL. The chest wall was closed using 4-0 silk suture, the skin closed with 6-0 prolene suture and the mouse removed from anaesthesia. Following anaesthesia, mice were supplied with a s.c. injection of buprenorphine (0.05 mg/kg) and carprofen (10 mg/kg) and allowed to recover. Starting from the day of the surgery, mice received daily 5-bromo-2′-deoxyuridine (BrdU) injections (100 mg/kg, i.p.). […]
Cardiomyocytes were the counted, cytospun onto glass slides and stained with BrdU and MLC2v antibodies, relevant secondary antibodies (see Star Methods Table) and Hoechst (1:1000) to quantify proliferating cardiomyocytes. The AlexaFluor 647 was used to stain BrDU to avoid false positive associated with auto-fluorescence inherent in adult cardiomyocytes in blue-green-yellow channels. To quantify proliferation, 5,000 cardiomyocytes per heart were imaged using a Nikon Spinning Disc confocal microscope using a 20× objective.
Finally, we sought to determine whether compounds 3 and 65 could regulate adult cardiomyocyte proliferation in vivo and whether the mevalonate pathway is critical for these effects. […] Following injection, proliferation was assessed using BrdU pulse-chase for 3 days, followed by fix-dissociation of the hearts, enabling preservation and separation of cardiomyocytes (FIG. 7F) and accurate quantification of BrdU positive cardiomyocytes (FIG. 7G). […]

Sequence of kinases (Homo sapiens, UniProt Q96GD4) (Q96GD4 whole entry): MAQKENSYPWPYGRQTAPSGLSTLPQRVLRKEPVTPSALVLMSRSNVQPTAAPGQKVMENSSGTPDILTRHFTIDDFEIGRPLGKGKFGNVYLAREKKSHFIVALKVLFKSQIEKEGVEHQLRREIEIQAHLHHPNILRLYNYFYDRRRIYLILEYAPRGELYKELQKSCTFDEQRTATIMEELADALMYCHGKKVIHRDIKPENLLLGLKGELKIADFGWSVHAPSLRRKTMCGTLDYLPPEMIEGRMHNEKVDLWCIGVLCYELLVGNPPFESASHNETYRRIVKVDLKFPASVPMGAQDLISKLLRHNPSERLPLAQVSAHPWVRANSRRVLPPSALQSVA
Sequence of kinases (Homo sapiens, UniProt P53671) (P53671 whole entry): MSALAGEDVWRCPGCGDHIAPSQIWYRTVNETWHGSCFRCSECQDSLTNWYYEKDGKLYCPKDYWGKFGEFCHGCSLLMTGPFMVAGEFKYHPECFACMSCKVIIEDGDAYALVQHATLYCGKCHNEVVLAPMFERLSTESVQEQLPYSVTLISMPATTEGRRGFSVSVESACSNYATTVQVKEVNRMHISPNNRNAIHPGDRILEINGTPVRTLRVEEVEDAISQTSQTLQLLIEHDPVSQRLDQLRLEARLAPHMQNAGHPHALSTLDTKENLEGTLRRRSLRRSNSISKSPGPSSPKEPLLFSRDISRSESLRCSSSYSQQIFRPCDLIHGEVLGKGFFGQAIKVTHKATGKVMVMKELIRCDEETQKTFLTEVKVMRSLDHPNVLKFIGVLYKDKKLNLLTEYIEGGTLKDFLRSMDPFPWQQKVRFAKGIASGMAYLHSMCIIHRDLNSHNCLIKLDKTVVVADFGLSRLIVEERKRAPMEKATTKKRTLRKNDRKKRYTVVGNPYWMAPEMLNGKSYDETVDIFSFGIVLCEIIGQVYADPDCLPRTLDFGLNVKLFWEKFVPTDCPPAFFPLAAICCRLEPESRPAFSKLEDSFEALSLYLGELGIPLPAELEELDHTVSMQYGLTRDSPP

SMILES	Mean Inhib (%) (kinases [1])	Mean Inhib (%) (kinases [2])	Mean Inhib (%) (kinases [3])	Mean Inhib (%) (kinases [4])	Mean Inhib (%) (kinases [5])	Mean Inhib (%) (kinases [6])	Mean Inhib (%) (kinases [7])	Mean Inhib (%) (kinases [8])	Mean Inhib (%) (kinases [9])	Mean Inhib (%) (kinases [10])	contractile parameters / force of contraction (immature hCOs)	DNA synthesis response with simvastatin ([11]; 10 mg/kg intracardiac plus simvastatin 20 mg/kg s.c. daily)	cardiomyocyte DNA synthesis (BrdU+) [11]
Cc1ccc(NC(=O)c2ccnc(N3CCOCC3)c2)cc1Nc1ccnc(N2CC(C)OC(C)C2)n1 (stereo not shown) [compound 3]	0.5	4.9	2.2	0.4	3.6	5.8	8.0	3.2	0.6	3.6	without affecting contractile parameters	blocked	significantly increased
Cc1cc(Oc2ccnc(Nc3ccc(S(N)(=O)=O)cc3)c2)c(-c2ccccn2)nc1C [compound 65]	22.2	2.7	−4.7	2.5	8.1	−4.9	2.3	10.2	−0.3	7.5	without affecting contractile parameters		significantly increased
